Experimental data reported in EP1285918A1, “C7 Ester substituted taxanes as antitumor agents” (Florida State University Research Foundation, Inc., priority 2001, dated 2003).
Where two headings read alike, the source gives them in different places.

How the values were obtained:
[1] = test system: DU 145 Human Prostate Carcinoma Xenografts; settings: DU145; for Mean Score: tumor score 1 to 10, group mean
Experimental: Other antitumor compounds were similarly formulated. […] The dosing volume was 0.3 ml per 20 g mouse.
Male NCr-nude mice (implanted subcutaneously with 1 mm^3 DU145 prostate carcinoma fragments in the flank) were sorted into treatment groups of five mice each. […] Dosing was initiated on Day 1. The antitumor compounds were given i.v. at an estimated maximum tolerated dose (MTD) appropriate for each agent on a qd x 1 schedule (single administration of compound). […] The vehicle was administered i.v. to control mice in Group 1 on the qd x 1 schedule. The study was terminated on Day 91. Treatment groups are detailed in Table 5.
The mean days of survival is the number of days after which a neoplasm reached a size of 1.5 g and the animal was euthanized. A complete response is obtained if the tumor is not palpable at the end of the study. A partial response is obtained if the tumor shrinks to a size smaller than its size on Day 1 of the study. […]

[2] = test system: A375 Human Melanoma Xenografts; settings: for Mean Score: tumor score 1 to 10, group mean
Summary of the method: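 Female NCr-nude mice carrying subcutaneous flank A375 implants (1 mm^3), six per group (Taxotere seven). Single i.v. dose on Day 1 at each agent's estimated MTD (Taxotere 70 mg/kg), vehicle i.v. for controls; study ended Day 60. Survival days counted to 2.0 g tumor; complete response = non-palpable tumor at study end, partial = smaller than on Day 1.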

[3] = test system: Panc-1 Human Pancreatic Carcinoma Xenografts
Experimental: Other antitumor compounds were similarly formulated. […] The dosing volume was 0.3 mL per 20 g mouse.
Female NCr-nude mice (6-8 weeks of age, implanted subcutaneously with 1 mm^3 Panc-1 pancreatic carcinoma fragments in the flank) were sorted into treatment groups of six mice each. […] Dosing was initiated on Day 1. The antitumor compounds were given i.v. at an estimated maximum tolerated dose (MTD) appropriate for each agent on a qd x 1 schedule (single administration of compound). […] Taxotere was given i.v. at a dose of 70 mg/kg on a qd x 1 schedule. The vehicle was given i.v. to control mice in Group 1 in each test on Day 1 (qd x 1) schedule. Treatment groups are detailed in Table 12. The study was terminated on Day 63.
The mean days of survival is the number of days after which a neoplasm reached a size of 1.5 g and the animal was euthanized. A complete response is obtained if the tumor is not palpable at the end of the study. A partial response is obtained if the tumor shrinks to a size smaller than its size on Day 1 of the study.

[4] = test system: VM46 Human Colon Carcinoma Xenografts; settings: for Complete Response / Mean Score / Partial Response / Stable Disease / Survivors / Toxic Deaths / MDS (n): 6 mice/group; for MDS (n): days until tumor reached 1.5 g
Summary of the method: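 Female NCr-nude mice bearing subcutaneous VM46 colon carcinoma fragments, six per group, given compounds i.v. once on Day 1 at estimated MTD; vehicle i.v. for controls. Endpoints to Day 64: mean days of survival (tumor reaching 1.5 g), toxic deaths, survivors, complete/partial responses and stable disease.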

[5] = i.v. qd x 1 (mg/kg: Taxol 24, 1351 107.6, 1393 72.6, 1401 107.6, 1418 107.6, 1424 195.1), 5 mice/group, Day 91
[6] = i.v. qd x 1 (mg/kg: Taxol 24, 1351 107.6, 1393 72.6, 1401 107.6, 1418 107.6, 1424 195.1)
[7] = A375, i.v. qd x 1 (mg/kg: Taxol 24, 1351 107.6, 1393 72.6, 1401 107.6, 1418 107.6, 1424 195.1, Taxotere 70), Day 60
[8] = A375, i.v. qd x 1 (mg/kg: Taxol 24, 1351 107.6, 1393 72.6, 1401 107.6, 1418 107.6, 1424 195.1, Taxotere 70)
[9] = Panc-1, i.v. qd x 1 (mg/kg: 1393 72.6, 1418 107.6), 6 mice/group, Day 63
[10] = i.v. qd x 1 at estimated MTD, 6 mice/group, study end Day 63
[11] = 107.6 mg/kg i.v. qd x 1, study end Day 64
[12] = 72.6 mg/kg i.v. qd x 1, study end Day 64

Row | SMILES | Complete Response [1, 5] | Partial Response [1, 5] | Stable Disease [1, 5] | Survivors [1, 5] | Mean Score [1, 6] | Complete Response [2, 7] | Partial Response [2, 7] | Survivors [2, 7] | Mean Score [2, 8] | Partial Responses [3, 9] | Survivors [3, 10] | Toxic Deaths [3, 10] | mean group weight losses ([3]; mouse, in vivo, iv) | Complete Response [4, 11] | Mean Score [4, 11] | Partial Response [4, 11] | Stable Disease [4, 11] | Survivors [4, 11] | Toxic Deaths [4, 11] | MDS (n) [4, 11] | other results
1 | CCC(=O)O[C@H]1C[C@H]2OC[C@@]2(OC(C)=O)[C@H]2[C@H](OC(=O)c3ccccc3)[C@]3(O)C[C@H](OC(=O)[C@H](O)[C@@H](NC(=O)OC(C)(C)C)c4cccs4)C(C)=C([C@@H](O)C(=O)[C@]12C)C3(C)C [Compound 1418] | 1 | 2 | 1 | 4 | 7.2 ± 1.2 | 0 | 1 | 2 | 4 ± 1.3 | 5 | 6 | 0 | 3-13% | 0 | 3.5 ± 0.8 | 0 | 3 | 3 | 0 | 41.7 ± 3.4 (3) days | Toxic Deaths [1, 5]: 0; total response rate ([1]; i.v. qd x 1 at estimated MTD): ≥ 50%; MDS (n) ([2]; A375, i.v. qd x 1 (mg/kg: Taxol 24, 1351 107.6, 1393 72.6, 1401 107.6, 1418 107.6, 1424 195.1, Taxotere 70), 2.0 g cut-off, Day 60): 34.5 ± 3.1 (3) days; survival extension compared to Group 1 controls ([2]; A375, i.v. qd x 1 (mg/kg: Taxol 24, 1393 72.6, 1418 107.6, Taxotere 70)): 140%; Complete Response ([3]; iv, 1512 h): 0; Mean Score ([3]; iv, 1512 h): 8 ± 0.6; Partial Response ([3]; iv, 1512 h): 5; Stable Disease ([3]; iv, 1512 h): 1; maximal mean group weight losses ([4]; mouse, in vivo, iv): 3-14%
2 | CCC(=O)O[C@H]1C[C@H]2OC[C@@]2(OC(C)=O)[C@H]2[C@H](OC(=O)c3ccccc3)[C@]3(O)C[C@H](OC(=O)[C@H](O)[C@H](C=C(C)C)NC(=O)OC(C)(C)C)C(C)=C([C@@H](O)C(=O)[C@]12C)C3(C)C [Compound 1351] | 0 | 1 | 0 | 1 | 2.6 ± 1.5 | 0 | 0 | 0 | 0±0 | – | 4 | 0 | 3-13% | 0 | 4.5 ± 1.4 | 1 | 2 | 3 | 0 | 43.7 ± 3.4 (3) days | mortality rate ([1]; 1351 107.6 mg/kg i.v. qd x 1): 40%; weight loss in a number of the treated mice prior to their deaths ([1]; 1351 107.6 mg/kg i.v. qd x 1): over 20%; MDS (n) ([1]; i.v. qd x 1 (mg/kg: Taxol 24, 1351 107.6, 1393 72.6, 1401 107.6, 1418 107.6, 1424 195.1), 5 mice/group, 1.5 g cut-off, Day 91): 62.6 ± 17.5 (2) days; Stable Disease [2, 7]: 0; mean group weight losses ([2]; mouse, in vivo, iv): 20-30%; Toxic Deaths ([3]; Panc-1, i.v. qd x 1 (mg/kg: Taxol 24, 1351 75.32, 1393 72.6, 1401 107.6, 1418 107.6, 1424 195.1), 6 mice/group): no toxic deaths; Complete Response [3, 10]: 1; Mean Score [3, 10]: 5.7 ± 1.3; Partial Response [3, 10]: 1; Stable Disease [3, 10]: 2; MDS (n) ([3]; i.v. qd x 1 at estimated MTD, 6 mice/group, study end Day 63, days until tumor reached 1.5 g): 42.5 ± 10.2 days; tolerability ([3]; mouse, in vivo, iv): well-tolerated; Toxic Deaths ([4]; VM46, i.v. qd x 1 at estimated MTD): no toxic deaths; maximal mean group weight losses ([4]; mouse, in vivo, iv): 3-14%; tolerability ([4]; mouse, in vivo, iv): quite well-tolerated
3 | CCC(=O)O[C@H]1C[C@H]2OC[C@@]2(OC(C)=O)[C@H]2[C@H](OC(=O)c3ccccc3)[C@]3(O)C[C@H](OC(=O)[C@H](O)[C@@H](NC(=O)OC(C)(C)C)c4ccco4)C(C)=C([C@@H](O)C(=O)[C@]12C)C3(C)C [Compound 1393, 3'-Desphenyl-3'-(2-furyl)-7-propionyl taxotere] | 3 | 1 | 0 | – | 8 ± 1.5 | 0 | 0 | – | 3±0 | 4 | – | 0 | – | – | – | – | – | – | – | – | complete response rate ([1]; 1393 72.6 mg/kg i.v. qd x 1): 60%; Stable Disease [2, 7]: 0; Toxic Deaths [2, 7]: 0; Complete Response [3, 9]: 1; Complete Response [4, 12]: 1; Mean Score [4, 12]: 3.2 ± 1.4; Partial Response [4, 12]: 0; Stable Disease [4, 12]: 0; Toxic Deaths [4, 12]: 0; MDS (n) [4, 12]: 46.2 ± 6.1 (5) days
